Laboratory results as given in PubChem BioAssay AID2060611 (Molecular Pharmacology Branch, DTP, NCI, 2025).
pIC50: −log10 of the molar value.

Test system: 628569-122-R-J1-PDC complex spheroid viability
Experiment: Anticancer human tumor 628569-122-R-J1-PDC patient-derived head and neck squamous carcinoma cell line growth inhibition [CLK]
Conditions: for pIC50: curve of first compound; for viability, T/C: stronger effect = lower value
Method in brief: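 Patient-derived tumor cells grown as complex spheroids with HUVEC endothelial cells and mesenchymal stem cells, treated with drug combinations. Concentrations descend in half-log steps from near clinical Cmax, or from 10 microM if Cmax unknown.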

[1] = second compound 0.0316 µM, first compound 0.0316 µM
[2] = second compound 0.0316 µM, first compound 0.1 µM
[3] = second compound 0.0316 µM, first compound 0.316 µM
[4] = second compound 0.0316 µM, first compound 1 µM
[5] = second compound 0.0316 µM, first compound 3.16 µM
[6] = second compound 0.0316 µM, first compound 10 µM
[7] = second compound 0.1 µM, first compound 0.0316 µM
[8] = second compound 0.1 µM, first compound 0.1 µM
[9] = second compound 0.1 µM, first compound 0.316 µM
[10] = second compound 0.1 µM, first compound 1 µM
[11] = second compound 0.1 µM, first compound 3.16 µM
[12] = second compound 0.1 µM, first compound 10 µM
[13] = second compound 0.316 µM, first compound 0.0316 µM
[14] = second compound 0.316 µM, first compound 0.1 µM
[15] = second compound 0.316 µM, first compound 0.316 µM
[16] = second compound 0.316 µM, first compound 1 µM
[17] = second compound 0.316 µM, first compound 3.16 µM
[18] = second compound 0.316 µM, first compound 10 µM
[19] = second compound 1 µM, first compound 0.0316 µM
[20] = second compound 1 µM, first compound 0.1 µM
[21] = second compound 1 µM, first compound 0.316 µM
[22] = second compound 1 µM, first compound 1 µM
[23] = second compound 1 µM, first compound 3.16 µM
[24] = second compound 1 µM, first compound 10 µM
[25] = second compound 3.16 µM, first compound 0.0316 µM
[26] = second compound 3.16 µM, first compound 0.1 µM
[27] = second compound 3.16 µM, first compound 0.316 µM
[28] = second compound 3.16 µM, first compound 1 µM
[29] = second compound 3.16 µM, first compound 3.16 µM
[30] = second compound 3.16 µM, first compound 10 µM
[31] = second compound 10 µM, first compound 0.0316 µM
[32] = second compound 10 µM, first compound 0.1 µM
[33] = second compound 10 µM, first compound 0.316 µM
[34] = second compound 10 µM, first compound 1 µM
[35] = second compound 10 µM, first compound 3.16 µM
[36] = second compound 10 µM, first compound 10 µM
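Note: spheroids exposed to agents for seven days before readout.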
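Throughout, for viability, T/C: 100% = DMSO vehicle control viability.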

`Nc1ccn(C2OC(CO)C(O)C2(F)F)c(=O)n1` (stereo not drawn) + CN1CCN(c2cc(C(=O)Nc3cc4cc(-c5cnn(C)c5)ccc4cn3)ccn2)CC1 showed a pIC50 (second compound 0.0316 µM) of less than 5.00, a pIC50 (second compound 0.1 µM) of less than 5.00 and a pIC50 (second compound 0.316 µM) greater than 7.50. The pIC50 (second compound 1 µM) was greater than 7.50, the pIC50 (second compound 3.16 µM) was greater than 7.50 and the pIC50 (second compound 10 µM) was greater than 7.50. The viability, T/C [1] was 71.5%, the viability, T/C [2] was 57.1% and the viability, T/C [3] was 55.4%. For the same molecule, the viability, T/C [4] was 58.4%, the viability, T/C [5] was 59% and the viability, T/C [6] was 62.9%. The viability, T/C [7] was 58.3%, the viability, T/C [8] was 48.6% and the viability, T/C [9] was 52.9%. For the same molecule, the viability, T/C [10] was 56.8%, the viability, T/C [11] was 51.9% and the viability, T/C [12] was 65.2%. The viability, T/C [13] was 28.5%, the viability, T/C [14] was 31.5% and the viability, T/C [15] was 23.9%. For the same molecule, the viability, T/C [16] was 35.1%, the viability, T/C [17] was 36.1% and the viability, T/C [18] was 29.3%. For the same molecule, the viability, T/C [19] was 5.39%, the viability, T/C [20] was 3.49% and the viability, T/C [21] was 4.39%. It also gave a viability, T/C [22] of 4.7%, a viability, T/C [23] of 3.75% and a viability, T/C [24] of 3.77%. For the same molecule, the viability, T/C [25] was 8.67%, the viability, T/C [26] was 5.79% and the viability, T/C [27] was 7.19%. It also gave a viability, T/C [28] of 5%, a viability, T/C [29] of 7.97% and a viability, T/C [30] of 3.35%. It also gave a viability, T/C [31] of 4.52%, a viability, T/C [32] of 4.25% and a viability, T/C [33] of 3.92%. It also gave a viability, T/C [34] of 6.65%, a viability, T/C [35] of 2.05% and a viability, T/C [36] of 1.36%.
For `O=c1[nH]cc(F)c(=O)[nH]1` + CNC(=O)c1ccc(Nc2nc(OC3CCCC3)c3c(-c4ccc5nc(C)oc5c4)c[nH]c3n2)c(OC)c1, the pIC50 (second compound 0.0316 µM) was less than 5.00, the pIC50 (second compound 0.1 µM) was less than 5.00 and the pIC50 (second compound 0.316 µM) was less than 5.00. It also gave a pIC50 (second compound 1 µM) greater than 7.50, a pIC50 (second compound 3.16 µM) greater than 7.50 and a pIC50 (second compound 10 µM) greater than 7.50. It also gave a viability, T/C [1] of 108%, a viability, T/C [2] of 99.2% and a viability, T/C [3] of 101%. It also gave a viability, T/C [4] of 84.8%, a viability, T/C [5] of 72.9% and a viability, T/C [6] of 60.6%. For the same molecule, the viability, T/C [7] was 59.1%, the viability, T/C [8] was 52.6% and the viability, T/C [9] was 62.2%. It also gave a viability, T/C [10] of 52.7%, a viability, T/C [11] of 60.4% and a viability, T/C [12] of 49.8%. It also gave a viability, T/C [13] of 50.9%, a viability, T/C [14] of 60.5% and a viability, T/C [15] of 52.4%. The viability, T/C [16] was 54%, the viability, T/C [17] was 60.3% and the viability, T/C [18] was 47.8%. For the same molecule, the viability, T/C [19] was 43.5%, the viability, T/C [20] was 50.4% and the viability, T/C [21] was 41.6%. It also gave a viability, T/C [22] of 52.3%, a viability, T/C [23] of 54.7% and a viability, T/C [24] of 47.7%. For the same molecule, the viability, T/C [25] was 44.9%, the viability, T/C [26] was 44.9% and the viability, T/C [27] was 48.8%. For the same molecule, the viability, T/C [28] was 48.8%, the viability, T/C [29] was 48.8% and the viability, T/C [30] was 35.6%. It also gave a viability, T/C [31] of 45.4%, a viability, T/C [32] of 37.9% and a viability, T/C [33] of 46%. It also gave a viability, T/C [34] of 46%, a viability, T/C [35] of 47.5% and a viability, T/C [36] of 45.3%.
With `O=C(c1cc(Cc2n[nH]c(=O)c3ccccc23)ccc1F)N1CCN(C(=O)C2CC2)CC1` + CN1CCN(c2cc(C(=O)Nc3cc4cc(-c5cnn(C)c5)ccc4cn3)ccn2)CC1 the pIC50 (second compound 0.0316 µM) was 5.17, the pIC50 (second compound 0.1 µM) was 5.92 and the pIC50 (second compound 0.316 µM) was greater than 7.50. The pIC50 (second compound 1 µM) was greater than 7.50, the pIC50 (second compound 3.16 µM) was greater than 7.50 and the pIC50 (second compound 10 µM) was greater than 7.50. For the same molecule, the viability, T/C [1] was 91.9%, the viability, T/C [2] was 89.5% and the viability, T/C [3] was 91.2%. For the same molecule, the viability, T/C [4] was 83.3%, the viability, T/C [5] was 56.8% and the viability, T/C [6] was 46.5%. For the same molecule, the viability, T/C [7] was 55.8%, the viability, T/C [8] was 56.6% and the viability, T/C [9] was 61.9%. For the same molecule, the viability, T/C [10] was 49.8%, the viability, T/C [11] was 41.5% and the viability, T/C [12] was 33.7%. It also gave a viability, T/C [13] of 34.6%, a viability, T/C [14] of 33.6% and a viability, T/C [15] of 33.9%. For the same molecule, the viability, T/C [16] was 27.7%, the viability, T/C [17] was 16.8% and the viability, T/C [18] was 14.2%. The viability, T/C [19] was 9.74%, the viability, T/C [20] was 5.97% and the viability, T/C [21] was 9.24%. The viability, T/C [22] was 5%, the viability, T/C [23] was 8.27% and the viability, T/C [24] was 8.76%. The viability, T/C [25] was 6.83%, the viability, T/C [26] was 7.39% and the viability, T/C [27] was 8.5%. For the same molecule, the viability, T/C [28] was 5.51%, the viability, T/C [29] was 6.5% and the viability, T/C [30] was 8.04%. For the same molecule, the viability, T/C [31] was 3.42%, the viability, T/C [32] was 3.07% and the viability, T/C [33] was 1.85%. It also gave a viability, T/C [34] of 3.59%, a viability, T/C [35] of 3.68% and a viability, T/C [36] of 2.67%.
`C=C(F)C(=O)N1CCN(c2nc(OCC3CCCN3C)nc3c2CCN(c2cccc4cccc(Cl)c24)C3)CC1CC#N` (stereo not drawn) + CN1CCN(c2cc(C(=O)Nc3cc4cc(-c5cnn(C)c5)ccc4cn3)ccn2)CC1 showed a pIC50 (second compound 0.0316 µM) of 5.14, a pIC50 (second compound 0.1 µM) of 5.34 and a pIC50 (second compound 0.316 µM) greater than 7.50. It also gave a pIC50 (second compound 1 µM) greater than 7.50, a pIC50 (second compound 3.16 µM) greater than 7.50 and a pIC50 (second compound 10 µM) greater than 7.50. The viability, T/C [1] was 102%, the viability, T/C [2] was 80.5% and the viability, T/C [3] was 98.3%. The viability, T/C [4] was 108%, the viability, T/C [5] was 113% and the viability, T/C [6] was 30.6%. The viability, T/C [7] was 64.3%, the viability, T/C [8] was 67.4% and the viability, T/C [9] was 64.1%. The viability, T/C [10] was 62.7%, the viability, T/C [11] was 87.9% and the viability, T/C [12] was 8.57%. It also gave a viability, T/C [13] of 35%, a viability, T/C [14] of 37.6% and a viability, T/C [15] of 34.7%. For the same molecule, the viability, T/C [16] was 32.2%, the viability, T/C [17] was 39.1% and the viability, T/C [18] was 2.52%. It also gave a viability, T/C [19] of 7.05%, a viability, T/C [20] of 4.72% and a viability, T/C [21] of 5.61%. The viability, T/C [22] was 5%, the viability, T/C [23] was 5.11% and the viability, T/C [24] was 1.51%. For the same molecule, the viability, T/C [25] was 6.63%, the viability, T/C [26] was 4.67% and the viability, T/C [27] was 7.01%. It also gave a viability, T/C [28] of 6.75%, a viability, T/C [29] of 3.34% and a viability, T/C [30] of 0.55%. It also gave a viability, T/C [31] of 1.82%, a viability, T/C [32] of 2.41% and a viability, T/C [33] of 3.57%. The viability, T/C [34] was 3.3%, the viability, T/C [35] was 0.98% and the viability, T/C [36] was 1.32%.
